Results from PubChem BioAssay (NCI).
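Growth conditions: 96-well plates. Treatment: test compound, 48 hours, 5 concentrations. Analysis: linear interpolation between bracketing concentrations; unreached endpoints set to highest concentration. GI50 marks 50% less growth. At the TGI there is no net growth.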

Legend:
Experiment in all cases: DTP human tumour cell line panel, 48 h
CAKI-1 renal = tested on: CAKI-1 renal
UACC-257 melanoma = tested on: UACC-257 melanoma
MOLT-4 leukemia = tested on: MOLT-4 leukemia
SK-MEL-2 melanoma = tested on: SK-MEL-2 melanoma
NCI-H460 lung = tested on: NCI-H460 lung
K-562 leukemia = tested on: K-562 leukemia
SNB-75 CNS = tested on: SNB-75 CNS
SNB-19 CNS = tested on: SNB-19 CNS
OVCAR-8 ovarian = tested on: OVCAR-8 ovarian
SK-MEL-28 melanoma = tested on: SK-MEL-28 melanoma
T-47D breast = tested on: T-47D breast

Row | SMILES | TGI (CAKI-1 renal) | TGI (UACC-257 melanoma) | TGI (MOLT-4 leukemia) | TGI (SK-MEL-2 melanoma) | TGI (NCI-H460 lung) | TGI (K-562 leukemia) | TGI (SNB-75 CNS) | TGI (SNB-19 CNS) | TGI (OVCAR-8 ovarian) | TGI (SK-MEL-28 melanoma) | TGI (T-47D breast) | GI50 (CAKI-1 renal) | GI50 (MOLT-4 leukemia) | GI50 (SK-MEL-2 melanoma) | GI50 (NCI-H460 lung) | GI50 (K-562 leukemia) | GI50 (SNB-75 CNS) | GI50 (SNB-19 CNS) | GI50 (SK-MEL-28 melanoma)
1 | COc1cccc2c1C(=O)c1c(O)c3c(c(O)c1C2=O)CC(O)(C(C)=O)CC3O (centres undefined) | 21.8 µM | 32.7 µM | 11.3 µM | 16.9 µM | 7.42 µM | 39.3 µM | 32.4 µM | 32.8 µM | 10.6 µM | 44.3 µM |  |  |  |  |  |  |  |  | 
2 | O=c1[nH]c(-c2ccc(Cl)cc2)cc2ccsc12 | 7.04 µM | 7.87 µM | > 100 µM | > 100 µM | > 100 µM | > 100 µM | 23.2 µM | 7.71 µM | > 100 µM | > 100 µM | 59.9 µM |  |  |  |  |  |  |  | 
3 | CCOC(=O)C1=C(C)N(c2ccc(Cl)cc2)C2(O)C=CC(Nc3ccc(Cl)cc3)=C3C(=O)N(c4ccccc4)C(=O)C312 (centres undefined) | 13.5 µM | 39.2 µM | > 100 µM | 10.5 µM | 13.7 µM | > 100 µM | 20.3 µM | 52.3 µM | 18.1 µM | 6.89 µM | 19.4 µM |  |  |  |  |  |  |  | 
4 | CN1CCN(Cn2nc(-c3cc(F)c(Cl)cc3Cl)oc2=S)CC1 | > 100 µM |  | 70.9 µM | > 100 µM | > 100 µM | > 100 µM | > 100 µM | > 100 µM |  | > 100 µM | 27 µM | 34.2 µM | 30.5 µM | > 100 µM | 41.2 µM | 41.4 µM | 53.3 µM | 35.2 µM | 28.6 µM
